Experimental data as given in PMC7565698, “Catabolic Reductive Dehalogenase Substrate Complex Structures Underpin Rational Repurposing of Substrate Scope” (Microorganisms, 2020).

Key:
NpRdhA [1] = biological target: T1, NpRdhA (Nitratireductor pacificus, UniProt K2MB66); test: X-ray crystal structure, soaked crystals ([…] Å); assay type: binding; settings: N-terminal His tag, 100 mM soak
T1 construct: gene NA2_14372; full-length, N-terminal His6 tag (NpRdhA^N; crystals) or C-terminal His6 tag (NpRdhA^C; A419M); expressed in Bacillus megaterium; holds cobalamin and two [4Fe-4S] clusters

NpRdhA [2] = biological target: T2, NpRdhA (Nitratireductor pacificus, UniProt K2MB66, A419M); test: HPLC of dehalogenation products; assay type: biochemical; settings: NADPH, spinach ferredoxin, E. coli flavodoxin reductase, 30 °C, anaerobic; C-terminal His tag
T2 construct: gene NA2_14372; full-length, N-terminal His6 tag (NpRdhA^N; crystals) or C-terminal His6 tag (NpRdhA^C; A419M); expressed in Bacillus megaterium; holds cobalamin and two [4Fe-4S] clusters

NpRdhA [3] = biological target: T1, NpRdhA; test: X-band continuous wave EPR of cob(II)alamin; assay type: binding; settings: 20 mM ligand, 100 uM protein, 30 K

T1 sequence (K2MB66 entry or part of it): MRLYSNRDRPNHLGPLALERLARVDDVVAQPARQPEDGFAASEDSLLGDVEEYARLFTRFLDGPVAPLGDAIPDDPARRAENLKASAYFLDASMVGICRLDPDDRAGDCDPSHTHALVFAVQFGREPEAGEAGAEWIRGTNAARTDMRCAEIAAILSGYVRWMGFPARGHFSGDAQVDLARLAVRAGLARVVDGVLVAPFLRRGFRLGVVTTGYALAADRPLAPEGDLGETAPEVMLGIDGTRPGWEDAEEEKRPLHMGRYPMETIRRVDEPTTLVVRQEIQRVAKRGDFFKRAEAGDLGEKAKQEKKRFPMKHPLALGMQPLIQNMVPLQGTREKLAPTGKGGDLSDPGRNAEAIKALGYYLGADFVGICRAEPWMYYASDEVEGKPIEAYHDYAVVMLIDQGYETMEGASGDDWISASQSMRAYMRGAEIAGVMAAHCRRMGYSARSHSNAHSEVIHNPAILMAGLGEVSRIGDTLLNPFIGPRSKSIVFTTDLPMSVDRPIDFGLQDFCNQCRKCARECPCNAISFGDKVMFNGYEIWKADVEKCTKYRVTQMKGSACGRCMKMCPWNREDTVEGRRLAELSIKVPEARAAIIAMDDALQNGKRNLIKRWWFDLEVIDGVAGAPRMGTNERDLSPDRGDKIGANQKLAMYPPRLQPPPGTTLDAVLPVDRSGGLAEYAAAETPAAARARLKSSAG
T2 sequence (K2MB66 entry or part of it A419M): as the sequence (K2MB66 entry or part of it) above, with A419M counted along it

Row | SMILES | X-ray crystal structure, soaked crystals (1.99 Å) (NpRdhA [1]; three conformations, one with Br ligating Co, one at the active site entrance) | HPLC of dehalogenation products (NpRdhA [2]) | X-ray crystal structure, soaked crystals (1.99 Å) (NpRdhA [1]; active site above cobalamin, Br at Co beta-axial position, partial photoreduction to 3-bromo-4-hydroxybenzoic acid) | X-band continuous wave EPR of cob(II)alamin (NpRdhA [3])
1 | O=C(O)c1ccc(O)c(Br)c1 [3-B-4-OH, 3-bromo-4-hydroxybenzoic acid] | structure of the NpRdhA^N protein in complex with 3-B-4-OH obtained through soaking | revealed the ability to dehalogenate 35-DB-4-OH, 3-B-4-OH, 35-DC-4-OH and 3-C-4-OH | – | –
2 | O=C(O)c1cc(Br)c(O)c(Br)c1 [35-DB-4-OH, 3,5-dibromo-4-hydroxybenzoic acid] | – | revealed the ability to dehalogenate 35-DB-4-OH, 3-B-4-OH, 35-DC-4-OH and 3-C-4-OH | 35-DB-4-OH is located above the cobalamin | –
3 | O=C(O)c1cc(Cl)c(O)c(Cl)c1 [35-DC-4-OH, 3,5-dichloro-4-hydroxybenzoic acid] | – | – | – | a distinct change in both g and hyperfine coupling values on substrate binding
